Reference: ChEMBL document CHEMBL1129763, “Acylhydrazones as M1/M3 selective muscarinic agonists” (Bioorg Med Chem Lett, 1996)

How the values were obtained:
[1] = molecular target: T1, Muscarinic acetylcholine receptor M1 (Rattus norvegicus, UniProt P08482); assay: Ability to displace [3H]- pirenzepine from M1 receptor in rat hippocampal membranes; assay type: cell membranes, Hippocampus
T1 sequence (P08482 whole entry): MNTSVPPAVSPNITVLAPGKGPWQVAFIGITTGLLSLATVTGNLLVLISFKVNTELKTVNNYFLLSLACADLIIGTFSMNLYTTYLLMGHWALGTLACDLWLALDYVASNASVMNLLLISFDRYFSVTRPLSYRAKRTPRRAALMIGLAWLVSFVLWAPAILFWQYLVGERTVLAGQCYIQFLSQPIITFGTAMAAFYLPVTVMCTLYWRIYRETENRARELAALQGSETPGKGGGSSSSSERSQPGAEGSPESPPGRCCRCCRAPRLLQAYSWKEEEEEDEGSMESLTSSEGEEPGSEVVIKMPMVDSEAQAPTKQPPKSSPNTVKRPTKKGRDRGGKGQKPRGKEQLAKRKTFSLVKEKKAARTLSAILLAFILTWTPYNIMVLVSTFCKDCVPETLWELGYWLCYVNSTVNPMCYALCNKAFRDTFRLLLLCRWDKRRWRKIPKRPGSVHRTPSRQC

[2] = molecular target: Muscarinic acetylcholine receptor M3 (Cavia porcellus) (UniProt Q8VH26); assay: Compound was evaluated for intrinsic activity at M3 receptor by measuring isometric contractions of the isolated guinea pig trachea; assay type: tissue-based
Sequence of Muscarinic acetylcholine receptor M3 (Cavia porcellus) (Q8VH26 1-587): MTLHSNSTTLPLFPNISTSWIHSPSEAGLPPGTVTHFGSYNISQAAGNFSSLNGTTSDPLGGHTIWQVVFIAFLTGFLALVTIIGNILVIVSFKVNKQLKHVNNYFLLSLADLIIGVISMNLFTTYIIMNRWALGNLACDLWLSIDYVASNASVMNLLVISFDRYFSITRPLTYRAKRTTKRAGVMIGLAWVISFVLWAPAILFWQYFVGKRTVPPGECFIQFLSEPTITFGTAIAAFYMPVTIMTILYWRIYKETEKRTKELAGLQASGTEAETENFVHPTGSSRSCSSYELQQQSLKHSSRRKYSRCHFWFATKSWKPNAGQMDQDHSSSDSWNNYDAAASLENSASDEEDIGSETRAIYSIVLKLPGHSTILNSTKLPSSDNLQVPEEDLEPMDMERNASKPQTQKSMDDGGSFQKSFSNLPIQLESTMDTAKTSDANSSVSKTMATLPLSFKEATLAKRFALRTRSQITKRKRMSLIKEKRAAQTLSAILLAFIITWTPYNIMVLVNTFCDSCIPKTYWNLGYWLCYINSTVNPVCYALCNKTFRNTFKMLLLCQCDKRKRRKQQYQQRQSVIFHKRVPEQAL

Row | Ki [1] [µM] | Intrinsic activity [2] [%] | SMILES
1 | 30 | – | CC1OC2(CCN(C)CC2)C/C1=N\NC(=O)Cc1ccccc1 (centres undefined)
2 | 13.6 | – | CC1OC2(CCN(C)CC2)C/C1=N\NC(=O)CCCC1CCCCC1 (centres undefined)
3 | 10 | – | CC1OC2(CCN(C)CC2)C/C1=N\NC(=O)Cc1ccc2ccccc2c1 (centres undefined)
4 | 41 | – | CCCCC(=O)N/N=C1\CC2(CCN(C)CC2)OC1C (centres undefined)
5 | 90 | – | CC(C)CC(=O)N/N=C1\CC2(CCN(C)CC2)OC1C (centres undefined)
6 | 16 | – | CCCC(=O)N(C)/N=C1\CC2(CCN(C)CC2)OC1C (centres undefined)
7 | 8 | – | CC1OC2(CCN(C)CC2)C/C1=N\NC(=O)CCCCC1CCCCC1 (centres undefined)
8 | 4.8 | 78 | CC1OC2(CCN(C)CC2)C/C1=N\NC(=O)c1ccc(C2CCCCC2)cc1 (centres undefined)
9 | 25 | – | CCCCCCC(=O)N/N=C1\CC2(CCN(C)CC2)OC1C (centres undefined)
10 | 38 | – | CC1OC2(CCN(C)CC2)C/C1=N\NC(=O)C1CCCCC1 (centres undefined)
11 | 30 | – | CC1OC2(CCN(C)CC2)C/C1=N\NC(=O)CC1CCCCC1 (centres undefined)
12 | 34 | – | CC1OC2(CCN(C)CC2)C/C1=N\NC(=O)CCCc1ccccc1 (centres undefined)
13 | 25 | – | CCCCCC(=O)N/N=C1\CC2(CCN(C)CC2)OC1C (centres undefined)
14 | 15.2 | – | CC1OC2(CCN(C)CC2)C/C1=N\NC(=O)C(C)(C)C (centres undefined)
15 | 9.5 | 81 | CCCCCCCC(=O)N/N=C1\CC2(CCN(C)CC2)OC1C (centres undefined)
16 | 14.4 | – | CCCCCCCCCC(=O)N/N=C1\CC2(CCN(C)CC2)OC1C (centres undefined)
17 | 9 | – | CCCCCCCCC(=O)N/N=C1\CC2(CCN(C)CC2)OC1C (centres undefined)
18 | 78 | – | CC1OC2(CCN(C)CC2)C/C1=N\NC(=O)c1ccccc1 (centres undefined)
19 | 8.8 | – | CCCCCCCC(=O)N(C)/N=C1\CC2(CCN(C)CC2)OC1C (centres undefined)

Row | SMILES | Ki [1] [µM] | Intrinsic activity [2] [%]
20 | CC(=O)N(C)/N=C1\CC2(CCN(C)CC2)OC1C (centres undefined) | 60 | –
21 | COC(=O)N/N=C1\CC2(CCN(C)CC2)OC1C (centres undefined) | 25 | –
22 | CC(=O)N/N=C1\CC2(CCN(C)CC2)OC1C (centres undefined) | 100 | 91
23 | CC(=O)N/N=C1\CC2(CCNCC2)OC1C (centres undefined) | 180 | –
24 | CC(C)C(=O)N/N=C1\CC2(CCN(C)CC2)OC1C (centres undefined) | 28 | –
25 | CCC(=O)N/N=C1\CC2(CCN(C)CC2)OC1C (centres undefined) | 76 | –
26 | CCCC(=O)N/N=C1\CC2(CCN(C)CC2)OC1C (centres undefined) | 65 | –
